The source of these data is publication PMC10447463, “Data-mining unveils structure–property–activity correlation of viral infectivity enhancing self-assembling peptides” (Nature Communications, 2023).

Data set [1] deals with HIV-1 infection of TZM-bl cells. Kind of data set: HIV-1 infectivity enhancement assay, β-galactosidase luminescence. It counts as cell-based.
Data set [2] relates to TZM-bl cells. The format is cell-based. The note with it: CellTiter-Glo, mean of n = 3 replicates; for viability 0.26 µM: peptide 0.26 µM; for viability 1.3 µM: peptide 1.3 µM; for viability 6.5 µM: peptide 6.5 µM. The procedure:
The cell viability after addition of peptides to TZM–bl cells was studied via the CellTiter–Glo assay. To this end, 10,000 cells were seeded and on the next day serial diluted peptides were added. After 3 days the supernatant was removed and 100 µL CellTiter–Glo Reagent 1:1 diluted in PBS was added. After 10 min 50 µL was transferred to white microplate and luminescence was recorded by Orion microplate luminometer.
2. Cell Viability of Representatively Selected Peptides
Figure S 2 Cell Viability normalized to 100% metabolic activity as determined by CellTiterGlo Assay of 57 representatively selected peptides from the library. The selection represents infectivity enhancing and not […]
concentration. Error bars indicate standard deviation from triplicate measurements. Source data for Figure S2 […]
Figure S3 Cell Viability normalized to 100% metabolic activity determined by CellTiterGlo Assay of 20 peptides reported in literature. 33,34,43–48,35–42 Cell viability (> 80%) is maintained for all peptides at 1.3 µM concentration regardless of the preparation method, which is A PNF formation method by dilution of 10 mg/mL peptide stock in DMSO in PBS to 1 mg/mL or B preparation according to literature reported protocol (SI Section 8). Error bars indicate standard deviation from triplicate measurements. Source data for Figure S3 is provided.

The nature of data set [3]: Zeta-potential measurement. The format is physicochemical. The essentials:
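Samples: 1 mg/mL in PBS pH 7.4 (from DMSO), 1 d at RT, then diluted in 1 mM KCl immediately before measurement. Triplicates, two independent runs averaged.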

The format of data set [4] is physicochemical. More on the design: key to Fibril / Fibril Formation / TEM 2cat / Fibril: 1 = fibrils present; 0 non-fibrillar structures. The note with it: TEM, 1 mg/mL, uranyl acetate stain, qualitative. The procedure:
For ATR FT–IR spectroscopy measurements, 200 µL of the respective 1 mg/mL PNF solution was lyophilized and the resulting powder used for measurement. All spectra were recorded on a Bruker Tensor 27 spectrometer with a diamond crystal as ATR element (PIKE MiracleTM, spectral resolution 2 cm^-1). Every sample was measured with 64 scans. Data were analyzed with OriginLab software and calculation of β–sheet content was conducted according to a previous report. TEM. For TEM measurements 5 µL of PNF fibrils (1 mg/mL) were placed on copper grids coated with carbon and formvar layer (300 mesh, Plano GmbH). After 10 min incubation time, the grids were staining with 4% uranyl acetate solution for 2.5 min and washed with water. Measurements were performed on a Jeol 1400 electron microscope with 120 kV acceleration voltage. CR Assay. For the determination of the amount of peptide monomer converting into nanostructures the amine reactive dye fluorescamine was used analogous to a previous reported protocol. Briefly, 100 µL of the preformed PNF solution was centrifuged in a Vivaspin 500 tube (3 kDa MWCO) to separate fibers from free peptide monomer (16200 x g, 4 °C, 45 min). The filtrate and 100 μL of the non-filtered PNF sample were lyophilized and dissolved in 30 μL DMSO. 10 μL of the filtrate and non-filtered DMSO samples were submitted in a black UV Star® 384 microliter well–plates (Greiner bio–one) and 3 μL of the fluorescamine solution (10 mg/mL, DMSO) was added to measure the fluorescence enhancement. After 20 min of incubation at RT, fluorescence was recorded on an Infinite® M1000 PRO microplate reader (Tecan) at λem = 470 nm upon excitation at λex = 365 nm with 10 nm bandwidths and multiple reads per well (3×3). Measurements were repeated in triplicates and averaged with standard deviation. All values were calculated as n-fold fluorescence enhancement (DMSO only as a reference was set to 1). The conversion rate CR was defined according to the equation Eq. (3).3 CR=100−100×fluorescenceintensityfiltrate/fluorescenceintensityoriginal[%]
1. Remarks on experimental parameters and bioinformatic descriptors
1.1 Experimental parameters
Transmission electron microscopy (TEM) measurements. TEM measurements were used to control if peptides assemble. The assemblies were categorized in non -fibrillar structures (no assembly, […]
grid but only amorphous aggregates. In contrast, peptides defined as fibrillar may also include amorphous structures. Amongst nonfibrillar assemblies also amorphous aggregates are summarized.
Amorphous aggregates are defined as structures with high β-sheet content which lack long-range order, that is crystallinity or fibril formation. It is generally assumed that these structures might be

The nature of data set [5]: Turbidity, derived count rate of scattered light. The format is physicochemical. The conditions noted are these: derived count rate of scattered light at 633 nm, 173°, from zeta-potential measurement, 0.1 mg/mL in 1 mM KCl after 1 d at 1 mg/mL in PBS; turbidity / microscopic aggregation; mean of triplicate. The procedure:
4 µL of 1 mg/mL peptide fibrils solution is added to a 20 µL, 50 µM ThT–solution in PBS. The mixture is incubated for 15 min at RT to allow binding of ThT dye with β–sheet rich structures. For reference PBS (4 µL) was added instead of peptide fibril solution. The samples were placed in black UV Star® 384 microliter well–plates (Greiner bio–one). Fluorescence spectra were recorded on an Infinite® M1000 PRO microplate reader (Tecan) at λem = 488 nm upon excitation at λex = 440 nm with 10 nm bandwidths and multiple reads per well (3×3). Measurements were repeated in triplicates and averaged with standard deviation. […] Zeta-Potential. For the determination of the surface charge of aggregated peptides zeta-potential measurements were conducted with a Zetasizer Nano ZS, Malvern Instruments. Unless stated otherwise the peptides were dissolved from DMSO (10 mg/mL) in PBS (pH 7.4) to concentration of 1 mg/mL and incubated for 1d at RT. Just before the measurement the 60 µL of the peptides were further diluted in 600 µL KCl (aq, 1 mM) in a 1 mL disposable folded capillary cells (DTS–1060, Zetasizer Nano series, Malvern). The zeta potential of the peptides was derived from the electrophoretic mobility based on the Smoluchowski formula. All measurements were averaged over two individually performed experiments and conducted in triplicates for each sample. Aggregate analysis. […] Furthermore, fluorescence microscopy was conducted by staining 1 µL preformed fibrils (1 mg/mL) with 9 µL ThT (50 µM). Brightfield microscopy was performed simultaneously to evaluate aggregation also for non ThT-active fibrils. The measurements were performed on a Leica DMi8 microscope with 10x air objective and equipped with a Leica MC170 HD camera with a filter setting λem = 527/30 nm upon excitation at λex = 480/40 nm) and processed with the Leica LASX software. To quantify size and number of microscopic aggregation of particles > 10 µm^2 at least 3 independently measured images were analyzed via the 3D object counter analysis tool of ImageJ, v 1.53f51. Sum–frequency generation. The SFG experiments were carried out with a femtosecond Ti: Sapphire amplified laser system (Spitfire Ace, Spectra–Physics, 800 nm, 40 fs, 1 kHz) with 5 W output power. We used 2 W to pump an optical parametric amplifier (TOPAS, light conversion) with a non–collinear difference frequency generation stage to generate broadband IR pulses. Another 1 W of the laser output passed through an etalon to generate narrowband visible pulses (10 cm^-1). The incident angles of the visible and IR beams were 36° and 41° with respect to the surface normal, respectively. The visible (13 µJ) and IR (5 µJ) pulses were overlapped spatially and temporally at the sample position. Subsequently, the generated SFG pulse was guided into a spectrograph (Acton SP 300i, Princeton Instruments), and detected with an EMCCD (Newton, Andor Technology). To avoid IR absorption of water vapor, we purged N2 for the measurement. All spectra were collected in the ssp (denoting s-, s- and p-polarized SFG, visible and IR, respectively) polarization combination. The spectra were normalized to the non–resonant signal taken from z–cut quartz after subtracting a background spectrum. […]
ways to determine turbidity of samples, this can be via transmittance and via scattering. Transmittance […]
as it is an easy and fast method.10,11 However, transmittance contributes not only from µm-sized aggregates but also nm-sized aggregates such as distinct fibrils, which makes hard to distinguish between fibril formation and micrometer sized aggregation. Although dynamic light scattering is a frequently applied method for determination of particle size, it cannot be conducted in solutions with anisotropic aggregates in micrometer size range, since the Stokes-Einstein relation is only applicable for homogeneous […] spherical particles.12 Further models describing scattering intensity and […]

Data set [6] can be described thus: Turbidity, derived count rate of scattered light. It counts as physicochemical. The note with it: log10 of derived count rate of scattered light, Figure 7B.

For the substance CKIW [TM81], the infectivity result in data set [1] (infectivity class (low / medium / high) of the peptide in the sequence-pattern analysis, Fig. S22-A4, class limits not given) was “low”. In data set [1] (log10 of HIV-1 infection of TZM-bl cells relative to EF-C, Fig S15 source data, asymmetric std dev errors), the “Log10 Inf. rel. to EF-C” value was -1.286. In addition, in data set [2], the “viability 0.26 µM” value is recorded as 106.2, the “viability 1.3 µM” value is reported as 107.1 and the “viability 6.5 µM” value was found to be 100.6. Further, the “Zeta-pot. / mV” value in data set [3] (zeta potential of peptide, Fig S15 source data) is recorded as -3.71 mV.
As to ISKLEYSNFSVRY [reference compound], the “Log10 Infection Rel EF-C” value in data set [1] (log10 of infection relative to EF-C, Figure 7B) is -0.26. Also, the “Inf. rel. EF-C” value in data set [1] (n-fold infection vs virus only, relative to that of EF-C, 1.3 µM peptide) was 0.54. For the same substance, the “Abs Infection at 0.26µM” value in data set [1] (peptide 0.26 µM, mean of n = 3, Figure 7A) is 23820. In addition, the “Abs Infection at 1.3 µM” value in data set [1] (peptide 1.3 µM, mean of n = 3, Figure 7A) was 58613.33333. Moreover, the “Abs Infection at 6.5 µM” value in data set [1] (peptide 6.5 µM, mean of n = 3, Figure 7A) was found to be 157450. Besides, the “Fibril / Fibril Formation” value in data set [4] stood at 1. For the same substance, the “Zeta pot. / mV” value in data set [3] (1 mg/mL in PBS pH 7.4 from 10 mg/mL DMSO stock, 1 d RT, 60 µL diluted in 600 µL 1 mM KCl, Zetasizer Nano ZS, Smoluchowski, mean of triplicate) was found to be 9.3 mV. For the same substance, the “Zeta-Potential / mV” value in data set [3] (mean, Figure 7B) was 9.33 mV. In addition, the “Count Rate / kcps” value in data set [5] was 7807 kcps. The “Log10 Count Rate” value in data set [6] was 3.893.
Take QCKIKQIINMWQ [EF-C (Münch Stock)]: in data set [2], the “viability 0.26 µM” value stood at 102, the “viability 1.3 µM” value is 94.89 and the “viability 6.5 µM” value came to 78.3.
